Source: patent publication US20140221201A1, “INSECTICIDAL ACTIVE MIXTURES COMPRISING ARYLQUINAZOLINONE COMPOUNDS” (priority 2011, published 2014)

Tests used:
Type in all cases: in vivo
[1] = test system: Yellow fever mosquito (Aedes aegyptii); test: Test B.4 Control of yellow fever mosquito, curative ultrasonic spraying of larvae in liquid diet; settings: 2 DAT
Experimental: Test B.4 Control of Yellow fever mosquito (Aedes aegyptii) Test principle: Curative ultrasonic spraying of larvae in liquid diet
For evaluating control of Aedes aegyptii, the assay was conducted in microtiter plates (MTP's), wherein each well was filled with 0.2 ml of a Aedes aegyptii suspension of 5 to 15 freshly hatched larvae in a liquid diet of 200 ppm yeast in water, prepared directly before spraying.
The compounds were formulated at desired concentration using a solution containing 75% v/v water and 25% v/v DMSO. Different concentrations of formulated compounds were applied at 2.5 μl, using a ultrasonic spraying, at two replications.
The MTPs were sealed with the matching lids in a climatized test chamber at about 28° C.+1° C. and about 80+5% RH (relative humidity) and at 3500+500 lux of fluorescent light.
Assessment was made 2 days after treatment (DAT) using as criterion movement of the larvae. Valid assessment values were at level 0, 50 and 100, wherein 100 indicates no movement, 50 indicates few movement and 0 indicates moderate to high movement.

[2] = test system: Vetch Aphid (Megoura viciae); test: Test B.1 Control of vetch aphid, sprayed broad bean leaf disks in 24-well microtiter plates; settings: 5 days
Experimental: Test B.1 Control of Vetch Aphid (Megoura viciae)
For evaluating control of vetch aphid (Megoura viciae) through contact or systemic means the test unit consisted of 24-well-microtiter plates containing broad bean leaf disks.
The compounds or mixtures were formulated using a solution containing 75% water and 25% DMSO. Different concentrations of formulated compounds or mixtures were sprayed onto the leaf disks at 2.5 μl, using a custom built micro atomizer, at two replications.
For experimental mixtures in these tests identical volumes of both mixing partners at the desired concentrations respectively, were mixed together. After application, the leaf disks were air-dried and 5-8 adult aphids placed on the leaf disks inside the microtiter plate wells. The aphids were then allowed to suck on the treated leaf disks and incubated at about 23±1° C. and about 50±5% RH (relative humidity) for 5 days. Aphid mortality and fecundity was then visually assessed.

[3] = test system: Green Peach Aphid (Myzus persicae); test: Test B.3 Control of green peach aphid, systemic, liquid artificial diet under membrane; settings: 3 days
Description: Test B.3 Control of Green Peach Aphid (Myzus persicae)
For evaluating control of green peach aphid (Myzus persicae) through systemic means the test unit consisted of 96-well-microtiter plates containing liquid artificial diet under an artificial membrane.
The compounds or mixtures were formulated using a solution containing 75% water and 25% DMSO. Different concentrations of formulated compounds or mixtures were pipetted into the aphid diet, using a custom built pipetter, at two replications.
(§1) For experimental mixtures in these tests identical volumes of both mixing partners at the desired concentrations respectively, were mixed together.
After application, 5 -8 adult aphids were placed on the artificial membrane inside the microtiter plate wells. The aphids were then allowed to suck on the treated aphid diet and incubated at about 23±1° C. and about 50±5% RH for 3 days. Aphid mortality and fecundity was then visually assessed.

[4] = test system: Tobacco Budworm (Heliothis virescens); test: Test B.6 Control of tobacco budworm, eggs on sprayed insect diet in 96-well microtiter plates; settings: 5 days
Experimental: Test B.6 Control of Tobacco Budworm (Heliothis virescens)
For evaluating control of tobacco budworm (Heliothis virescens) the test unit consisted of 96-well-microtiter plates containing an insect diet and 15-25 H. virescens eggs.
The compounds or mixtures were formulated using a solution containing 75% water and 25% DMSO. Different concentrations of formulated compounds or mixtures were sprayed onto the insect diet at 10 μl, using a custom built micro atomizer, at two replications.
as §1
After application, microtiter plates were incubated at 28±1° C., 80±5% RH for 5 days. Egg and larval mortality was then visually assessed.

[5] = test system: Boll Weevil (Anthonomus grandis); test: Test B.2 Control of boll weevil, eggs on sprayed insect diet in 24-well microtiter plates; settings: 5 days
Experimental: Test B.2 Control of Boll Weevil (Anthonomus grandis)
For evaluating control of boll weevil (Anthonomus grandis) the test unit consisted of 24-well-microtiter plates containing an insect diet and 20-30 A. grandis eggs.
The compounds or mixtures were formulated using a solution containing 75% water and 25% DMSO. Different concentrations of formulated compounds or mixtures were sprayed onto the insect diet at 20 μl, using a custom built micro atomizer, at two replications.
as §1
After application, microtiter plates were incubated at about 23±1° C. and about 50±5% RH for 5 days. Egg and larval mortality was then visually assessed.

[6] = test system: Caenorhabditis elegans; test: Test B.5 Control of Caenorhabditis elegans, curative ultrasonic spraying of nematodes in liquid diet; settings: 4 DAT
Experimental: Test B.5 Control of Caenorhabditis elegans Test principle: Curative ultrasonic spraying of nematodes in liquid diet
For evaluating control of Caenorhabditis elegans the test unit consisted of microtiter plates (MTP), wherein each well was filled with 0.18 ml of a C. Elegans suspension containing 60 to 100 individuals of C. elegans at mixed life stages in a liquid diet.
The compounds were formulated at desired concentration using a solution containing 75% v/v water and 25% v/v DMSO. Different concentrations of formulated compounds were applied at 5 μl by ultrasonic spraying onto the liquid diet, at two replications. After application, the treated microtiterplates were incubated in a climatized test chamber at temperature of about 18+/−1° C. and 70+/−5% RH in the dark.
Assessment was made 4 days after treatment (DAT) using as criterion movement of nematodes. Valid assessment values were at level 0, 50 and 100, wherein 100 indicates no movement, 50 indicates few movement and 0 indicates moderate to high movement.

[7] = alpha cypermethrin alone, 10 ppm
[8] = alphacypermethrin alone, 0.4 ppm

CC1(C)C(C=C(Cl)Cl)C1C(=O)OC(C#N)c1cccc(Oc2ccccc2)c1 (stereo not drawn) [Alpha cypermethrin, alpha-cypermethrin]
Average control % [1, 7]: 0% | Average control % ([2]; alpha cypermethrin alone, 2 ppm): 0% | Average control % [3, 7]: 0% | Average control % [4, 8]: 0% | Average control % [5, 7]: 0% | Average control % [5, 8]: 0%

Cc1cc(F)c(-n2cnc3ccc(F)cc3c2=O)cc1[S+]([O-])CC(F)(F)F (stereo not drawn) [CE.I.31, 6-Fluoro-3-[2-fluoro-4-methyl-5-2(2,2,2-trifluoroethanesulfinyl)-phenyl]-3H-quinazolin-4-one]
Average control % ([4]; CE.I.31 alone, 2000 ppm): 0%

Cc1cc(F)c(-n2cnc3ccccc3c2=O)cc1SCC(F)(F)F [CE.I.34, 2-(2,2,2-trifluoroethylsufanyl)-4-(4-oxo-quinazolin-3-yl)-5-fluoro-toluol]
Average control % ([2]; CE.I.34 alone, 100 ppm): 0% | Average control % ([3]; CE.I.34 alone, 4 ppm): 0% | Average control % ([6]; CE.I.34 alone, 100 ppm): 0% | Average control % ([5]; CE.I.34 alone, 100 ppm): 0%

Cc1cc(F)c(-n2cnc3ccccc3c2=O)cc1[S+]([O-])CC(F)(F)F (stereo not drawn) [CE.I.35, 2-(2,2,2-trifluoroethylsufinyl)-4-(4-oxo-quinazolin-3-yl)-5-fluoro-toluol]
Average control % ([1]; CE.I.35 alone, 4 ppm): 0% | Average control % ([1]; CE.I.35 alone, 500 ppm): 0% | Average control % ([1]; CE.I.35 alone, 2500 ppm): 0% | Average control % ([5]; CE.I.35 alone, 500 ppm): 0% | Average control % ([5]; CE.I.35 alone, 2500 ppm): 0%

CCOCn1c(-c2ccc(Cl)cc2)c(C#N)c(Br)c1C(F)(F)F [Chlorfenapyr, chlorfenapyr]
Average control % ([6]; chlorfenapyr alone, 10 ppm): 0%

CCC(C)(C)C(=O)OC1=C(c2ccc(Cl)cc2Cl)C(=O)OC12CCCCC2 [Spirodiclofen, spirodiclofen]
Average control % ([4]; spirodiclofen alone, 3.2 ppm): 0%

Cc1cc(C)c(C2=C(OC(=O)CC(C)(C)C)C3(CCCC3)OC2=O)c(C)c1 [Spiromesifen, spiromesifen]
Average control % ([5]; spiromesifen alone, 500 ppm): 0%

abamectin
Average control % ([1]; abamectin alone, 2 ppm): 0%

spinosad
Average control % ([1]; spinosad alone, 2 ppm): 0%
